Consider six substances from patent US20230416304A1, “TETRAPEPTIDE AND COMPOSITIONS COMPRISING TETRAPEPTIDES” (THE BOOTS COMPANY PLC, priority 2020, published 2023).

The star is where a group is joined. Palmitoyl = CCCCCCCCCCCCCCCC(=O)*

The subject of one test is CD44. The experiment in a line: LC-MS/MS relative protein abundance in HDF secretome/matrisome: CD44. The format is cell-based, human. The following applies: HDFs, peptide 8 ppm, seven-day culture, secretome + matrisome. The procedure:
(§1) Following incubation with the peptides, liquid chromatography tandem mass spectrometry (LC-MS/MS) was used to quantify the relative abundance differences between proteins identified in the secretome/matrisome, versus an untreated control. HDFs from a donor, plated at 50,000 cells per well, were cultured with either peptide dissolved in cell culture media to achieve a final concentration of 8 ppm or with media without any peptide as a negative control. Treated and control cells were tested in triplicate. The cells were cultured as normal for five days in serum-supplemented media and then for a further two days in serum-free media (seven-day culture in total). The cell media containing the secretome (the proteins secreted by the cell) and the ECM, decellularized by incubation with EDTA (ethylenediaminetetraacetic acid), containing the matrisome (the collection of ECM associated proteins) were collected. The combined secretome and the matrisome compartments were subsequently analysed by LC-MS/MS using the following protocol.
(§2) Proteins were denatured (in urea), reduced (in dithiothreitol) and mechanically disassociated (using ultrasonication) prior to overnight digestion with trypsin (SMART Digest™ trypsin kit; Thermo Fisher). After digestion, samples were cleaned of contaminants up by removal of organic molecules and surfactants using biphasic extraction and desalted using OLIGO™ R3 Reversed Phase Resin (Thermo Fisher).
(§3) Samples (200 ng) were ran on an UltiMate® 3000 Rapid Separation Liquid Chromatographer coupled to a Q Exactive™ Hybrid Quadrupole-Orbitrap™ Mass Spectrometer for 90-minutes per sample run. Spectral data was searched again the Uniprot Human proteome database using Mascot v2.5.1. Subsequent protein identification and data-dependent quantification was performed using Progenesis QI. Normalised protein abundances were compared between each peptide treatment and control. Statistical analysis was performed within Progenesis QI using a between sample ANOVA.
(§4) The mass spectrometry data for each peptide is shown below in table 3 and FIG. 1. Changes in protein synthesis abundance due to each peptide are described below, including changes to specific proteins and the protein families they belong to (table 3). […] These protein families were as follows: antioxidants, cell stress proteins, ECM cleaving enzymes and ECM adhesion proteins; functional protein families all with a potentially important role in dermal repair and remodelling.

For the next test, the system named is HSP90B1. The experiment in a line: LC-MS/MS relative protein abundance in HDF secretome/matrisome: HSP90B1. The format is cell-based, human. The following applies: HDFs, peptide 8 ppm, seven-day culture, secretome + matrisome. The procedure: as §1, §2, §3, §4
The subject of a further test is PRDX4. The experiment in a line: LC-MS/MS relative protein abundance in HDF secretome/matrisome: PRDX4. The format is cell-based, human. The following applies: HDFs, peptide 8 ppm, seven-day culture, secretome + matrisome. The procedure:
as §1, §2, §3, §4

The next test has as its system SOD1. In words: LC-MS/MS relative protein abundance in HDF secretome/matrisome: SOD1. Type of test: cell-based, human. The following applies: HDFs, peptide 8 ppm, seven-day culture, secretome + matrisome. The procedure:
as §1, §2, §3, §4

Another test concerns human dermal fibroblasts. In words: LC-MS/MS overall protein synthesis and functional protein families in HDFs (FIG. 1 bubble plot). Type of test: cell-based. The following applies: peptide 8 ppm, seven-day culture. The procedure: as §1, §2, §3, §4
In the bubble plot, the larger the bubble size, the stronger the enhancement of proteins within that protein family.

A further test deals with HSPA8. In words: LC-MS/MS relative protein abundance in HDF secretome/matrisome: HSPA8. The format is cell-based, human. The following applies: HDFs, peptide 8 ppm, seven-day culture, secretome + matrisome. The procedure: as §1, §2, §3, §4
For another test, the system named is CTSL. In words: LC-MS/MS relative protein abundance in HDF secretome/matrisome: CTSL. Type of test: cell-based, human. The following applies: HDFs, peptide 8 ppm, seven-day culture, secretome + matrisome. The procedure:
as §1, §2, §3, §4

The next test relates to Decorin. In words: ELISA of decorin in culture supernatant of human dermal fibroblasts. The format is cell-based. As to conditions: HDFs, 72 hours, ELISA weighted to viable cells. The procedure: (§5) An ELISA is an immunological assay commonly used to measure presence and abundance of a specific proteins (antibodies, antigens, proteins and glycoproteins) in biological samples. In this case ELISAs are being used to quantify the expression of dermal extracellular proteins collagen-1, decorin and fibronectin. The quantity of collagen I is evaluated via the quantity of PIP (“carboxU-terminal pro-peptide of procollagen type I”) which is a peptide fragment resulting from the enzymatic degradation of procollagen present outside the fibroblast in the culture supernatant medium.
(§6) For all experiments, the control liquid stock was prepared by dissolving the powdered peptides in DMSO (Dimethyl Sulfoxide solvent). Peptide powders were dissolved in DMSO at recommended part per million concentrations and then further diluted in the cell culture medium and combined to obtain the desired peptide ratio.
(§7) Normal human dermal fibroblasts cells (HDFs) were cultured in contact with the tetrapeptides of the present invention, or composition without the peptide (negative control), for 72 hours. Thereafter the cultured supernatants were removed, and the quantity of dermal extracellular proteins determined using an ELISA assay for the protein of interest. For the ELISA quantification, cell viability was calculated using Hoechst staining allowing the quantity of dermal proteins to be weighted to the number of viable cells.
(§8) The effect of LSXX tetrapeptides on ECM protein expression by fibroblasts as measured by ELISA (columns 1 to 3) versus a tetrapeptide not conforming to the LSXX structure (column 4) are presented in the table below (table 1). Results are expressed as % increase versus the negative control.

The subject of a further test is Collagen I (PIP). In words: ELISA of Collagen I (PIP) in culture supernatant of human dermal fibroblasts. As to conditions: HDFs, 72 hours, ELISA weighted to viable cells. The format is cell-based. The procedure:
as §5, §6, §7
The quantity of Collagen I is evaluated via the quantity of PIP (“carboxU-terminal pro-peptide of procollagen type I”) which is a peptide fragment resulting from the enzymatic degradation of procollagen present outside the fibroblast in the culture supernatant medium.
as §8

A further test deals with Fibrillin-1. In words: Immunofluorescence of Fibrillin-1 expression by HDF cells. The format is cell-based, human. As to conditions: HDFs, 5 days. The procedure:
Immunofluorescence relies on the use of antibodies to label a specific protein with a fluorescent dye such as fluorescein isothiocyanate (FITC). In the following experiments, indirect immunofluorescence is used where a primary antibody first recognises and attaches to the specific protein, in this case fibrillin-1, and then a secondary antibody conjugated with FITC directed against the primary antibody is used for detection.
as §6
Fibrillin-1 expression was determined using immunofluorescence. Primary human dermal fibroblast (HDF) cells were purchased from Promo Cell and came from a donor. Cells were grown in wells of 96 well black walled clear bottomed plates (Peirce, Thermo Fisher). Cells were cultured in HDF media (PromoCell) supplemented with Basic Fibroblast Growth Factor (recombinant human), 1 ng/ml and Insulin 5 μg/ml. Cells were cultured for 5 days in the presence of the tetrapeptides, changing media and peptides every 48 hours, followed by immunofluorescence assessment. At the time of treatment cells were at passage 3-4. After 5 days the media was discarded, and cells fixed with methanol. The Fibrillin-1 fibre formation was probed using primary Fibrillin-1 monoclonal antibody (11C1.3; mouse monoclonal antibody (Thermo Fisher) 1 in 100 dilution overnight) designed to detect Fibrillin-1 protein. The Fibrillin-1 fibre formation was then probed with a secondary Goat anti-mouse IgG Thermo Fisher (1 part antibody in 1000 buffer solution for 1 hour) which includes a fluorescent tag designed to reveal the primary antibody binding pattern.
The antibody binding to Fibrillin-1 fibres was visualised using a Nikon Eclipse 100 microscope fluorescence setting using an excitation lens for fluorescein isothiocyanate (FITC). Images were taken using 6 second UV exposure. ImageJ software was used to quantify the Fibrillin-1 fibre abundance and coverage in each image using a threshold of 235 measuring the fibre density.
Results are expressed as a percentage increase in fibrillin abundance compared to untreated control.
Fibrillin-1 expression by HDF cells treated with tetrapeptides conforming to the LSXX structure (Pal-LSPG-OH, Pal-LSPD-OH and Pal-LSVD-OH) and a tetrapeptide not conforming to the LSXX structure (Pal-GYIL-OH), are presented in the table below (table 2). The peptide concentration used offered the highest yield of Fibrillin-1 production.

A further test relates to Fibronectin. The experiment in a line: ELISA of fibronectin in culture supernatant of human dermal fibroblasts. Type of test: cell-based. As to conditions: HDFs, 72 hours, ELISA weighted to viable cells. The procedure:
as §5, §6, §7, §8
Background: ELISA stands for enzyme-linked immunosorbent assay.

For Pal-EKGD-OH [reference compound], the “CD44 (ECM adhesion) protein enhanced versus untreated control” value in the test on CD44 was “+29%”. Besides, in the test with HSP90B1, the “HSP90B1 (Cell stress) protein enhanced versus untreated control” value is recorded as “ns”. Also, the “PRDX4 (Antioxidants) protein enhanced versus untreated control” value in the test with PRDX4 was “ns”. Moreover, the “SOD1 (Antioxidants) protein enhanced versus untreated control” value in the test with SOD1 is given as “ns”. Also, in the test with human dermal fibroblasts, the “overall protein synthesis / expression in comparison to the control” value (shortened to “overall protein synthesis / expression”) is “no or limited protein expression”. In addition, the “HSPA8 (Cell stress) protein enhanced versus untreated control” value in the test on HSPA8 was “ns”. In addition, the “CTSL (ECM cleaving enzymes) protein enhanced versus untreated control” value with CTSL is on record as “ns”.
As to Pal-GYIL-OH [reference compound], in the test on Decorin (peptide 5 ppm), the “Decorin, % increase versus the negative control” value was “+2%”. Further, the “Collagen I (PIP), % increase versus the negative control” value in the test on Collagen I (PIP) (peptide 5 ppm) was −4%. Also, the “Fibrillin-1, percentage increase in fibrillin abundance compared to untreated control” value (“Fibrillin-1, percentage increase” below) in the test on Fibrillin-1 (peptide 10 ppm) is listed as “+3%”. Moreover, the “Fibronectin, % increase versus the negative control” value in the test with Fibronectin (peptide 5 ppm) is given as −23%.
Take “Pal-LSPD-OH (Palmitoyl-LSPD-OH; SMILES CCCCCCCCCCCCCCCC(=O)N[C@@H](CC(C)C)C(=O)N[C@@H](CO)C(=O)N1CCC[C@H]1C(=O)N[C@@H](CC(=O)O)C(=O)O) [N-palmitoyl tetrapeptide Leu-Ser-Pro-Asp, free C-terminus; LSXX tetrapeptide of the invention]”: the “Decorin, % increase versus the negative control” value in the test on Decorin (peptide 5 ppm) was “+24%”. In the test with Collagen I (PIP) (peptide 5 ppm), the “Collagen I (PIP), % increase versus the negative control” value is reported as “+82%”. In addition, the “Fibrillin-1, percentage increase” value with Fibrillin-1 (peptide 4 ppm) is “+98%”. Moreover, the “Fibronectin, % increase versus the negative control” value in the test with Fibronectin (peptide 5 ppm) is given as “+92%”.
Regarding “Pal-LSPG-OH (Palmitoyl-LSPG-OH; SMILES CCCCCCCCCCCCCCCC(=O)N[C@@H](CC(C)C)C(=O)N[C@@H](CO)C(=O)N1CCC[C@H]1C(=O)NCC(=O)O) [N-palmitoyl tetrapeptide Leu-Ser-Pro-Gly, free C-terminus; LSXX tetrapeptide of the invention]”, in the test on Decorin (peptide 3 ppm), the “Decorin, % increase versus the negative control” value is given as “+39%”. Also, the “Collagen I (PIP), % increase versus the negative control” value with Collagen I (PIP) (peptide 3 ppm) is “+25%”. Further, the “Fibrillin-1, percentage increase” value in the test with Fibrillin-1 (peptide 8 ppm) was “+111%”. Moreover, the “CD44 (ECM adhesion) protein enhanced versus untreated control” value in the test on CD44 is on record as “+120%”. The “HSP90B1 (Cell stress) protein enhanced versus untreated control” value in the test on HSP90B1 is “+105%”. The “PRDX4 (Antioxidants) protein enhanced versus untreated control” value in the test on PRDX4 is recorded as “+362%”. Besides, the “SOD1 (Antioxidants) protein enhanced versus untreated control” value with SOD1 is “+50%”. In addition, in the test with human dermal fibroblasts, the “overall protein synthesis / expression” value is recorded as “overall enhancement of protein synthesis”. Also, the “HSPA8 (Cell stress) protein enhanced versus untreated control” value in the test with HSPA8 is given as “+46%”. In addition, the “Fibronectin, % increase versus the negative control” value with Fibronectin (peptide 3 ppm) is on record as “+82%”. Also, the “CTSL (ECM cleaving enzymes) protein enhanced versus untreated control” value with CTSL is “+107%”.
For the substance “Pal-LSVD-OH (Palmitoyl-LSVD-OH; SMILES CCCCCCCCCCCCCCCC(=O)N[C@@H](CC(C)C)C(=O)N[C@@H](CO)C(=O)N[C@H](C(=O)N[C@@H](CC(=O)O)C(=O)O)C(C)C) [N-palmitoyl tetrapeptide Leu-Ser-Val-Asp, free C-terminus; LSXX tetrapeptide of the invention]”, the “Decorin, % increase versus the negative control” value in the test on Decorin (peptide 5 ppm) is recorded as “+131%”. For the same substance, the “Collagen I (PIP), % increase versus the negative control” value in the test on Collagen I (PIP) (peptide 5 ppm) is listed as “+29%”. In addition, the “Fibrillin-1, percentage increase” value with Fibrillin-1 (peptide 10 ppm) was “+151%”. Also, the “CD44 (ECM adhesion) protein enhanced versus untreated control” value with CD44 is listed as “+57%”. Besides, the “HSP90B1 (Cell stress) protein enhanced versus untreated control” value in the test on HSP90B1 is “+49%”. Also, the “PRDX4 (Antioxidants) protein enhanced versus untreated control” value in the test with PRDX4 is “+120%”. Moreover, the “SOD1 (Antioxidants) protein enhanced versus untreated control” value with SOD1 is recorded as “+35%”. Besides, the “overall protein synthesis / expression” value in the test with human dermal fibroblasts is “overall enhancement of protein synthesis”. The “HSPA8 (Cell stress) protein enhanced versus untreated control” value in the test on HSPA8 is listed as “+48%”. In addition, the “Fibronectin, % increase versus the negative control” value with Fibronectin (peptide 5 ppm) is “+24%”. The “CTSL (ECM cleaving enzymes) protein enhanced versus untreated control” value with CTSL is “+42%”.
Consider Pal-QTAV-OH [reference compound], for which the “CD44 (ECM adhesion) protein enhanced versus untreated control” value in the test with CD44 is on record as “+32%”. Further, the “HSP90B1 (Cell stress) protein enhanced versus untreated control” value with HSP90B1 is “+30%”. In addition, the “PRDX4 (Antioxidants) protein enhanced versus untreated control” value with PRDX4 was “ns”. In addition, the “SOD1 (Antioxidants) protein enhanced versus untreated control” value with SOD1 is given as “ns”. Besides, the “overall protein synthesis / expression” value in the test with human dermal fibroblasts is given as “no or limited protein expression”. Also, the “HSPA8 (Cell stress) protein enhanced versus untreated control” value in the test on HSPA8 is given as “+18%”. Besides, the “CTSL (ECM cleaving enzymes) protein enhanced versus untreated control” value in the test with CTSL is on record as “+18%”.
